Experimental data from patent US20240174693A1, “SOMATOSTATIN RECEPTOR SUBTYPE 4 (SSTR4) AGONISTS AND THEIR APPLICATIONS” (Humanwell Pharmaceutical US, priority 2022, published 2024).

Columns and labels:
[1] = test system: SD rats; assay: SD rat carrageenan acute inflammation model; assay type: in vivo; details: SD rat carrageenan
Method: Using an electronic caliper for accuracy, the thickness of the rat's footpad was measured. Rats were then restrained, and 100 μl of 1% carrageenan was subcutaneously injected into the right hind footpad to induce inflammation, thereby establishing an acute inflammation model using carrageenan. Each compound was administered in advance according to the respective dosing time points. The swelling of the rat's foot was measured at various time points: before modeling (0 h) and after modeling (2, 4, 7 h). A comparison was made between footpad swelling before and after modeling. […] The results of the carrageenan-induced acute inflammation model experiment are depicted in FIG. 1.

[2] = target: T1, SSTR4 (Homo sapiens, UniProt P31391); assay: FLIPR assay for agonists, HEK293/Gα15/SSTR4 cells; assay type: cell-based; details: read-out: SSTR4 Agonist Activity in FLIPR Assay EC50
T1 construct: host or cells: HEK293/Gα15/SSTR4
Method: The study was carried out at HD Biosciences (Shanghai, China) according to the following steps.
Step 1: Test compounds were diluted to a 400×stock solution in DMSO in a 384-well plate.
Step 2: 1 μL of the compound solution was transferred from Step 1 to 79 μL of assay buffer, creating a 5×working solution in the 384-well plate using the Bravo method.
Step 3: HEK293/Gα15/SSTR1-5 cells were cultured in DMEM medium (10% FBS).
Step 4: When cells reached 80% confluence, the cells were separated using 0.25% trypsin-EDTA.
Step 5: The cell density was measured and the cells diluted to 1×10^6/mL using DMEM (10% FBS).
Step 6: 30 μL of cells were dispensed into each well of a Matrigel-coated 384-well plate (Corning 3764#) using a multi-channel pipette (30,000 cells per well) and cultured for 20-24 hours at 37° C. and 5% CO2.
Step 7: 10 μL of dye was added to each well in the cell plate prepared in Step 6.
Step 8: The dye and cells were incubated in the dark at 37° C. and 5% CO2 for 1 hour.
Step 9: After 1 hour, the FLIPR program was loaded, the pipette tips placed cell plate and compound plate (from Step 2) into the machine, and the run button was pressed. The program added 10 μL to 40 μL to the cell plate. FLIPR was used to read the plate at room temperature according to the specified settings and the data was saved.

[3] = test system: KM mice; assay: Acetic acid induced writhing test; assay type: in vivo; details: 30 mg/kg s.c.; for No. of writhing's: 0.6% acetic acid 15 min after dosing, 30-minute period; for Percentage of Inhibition / Significant compared to the model group: writhing
Method: Fifteen minutes after administration, a 0.6% acetic acid solution (5 mL/kg) was injected into the abdominal cavity. The mice were then placed in an observation box, and the number of writhing episodes was recorded within a 30-minute period. The assessment of pain intensity was based on the observation of the mice's writhing behavior.

[4] = In vivo PK study; details: po, 3 mg/kg p.o.

T1 sequence (P31391 whole entry): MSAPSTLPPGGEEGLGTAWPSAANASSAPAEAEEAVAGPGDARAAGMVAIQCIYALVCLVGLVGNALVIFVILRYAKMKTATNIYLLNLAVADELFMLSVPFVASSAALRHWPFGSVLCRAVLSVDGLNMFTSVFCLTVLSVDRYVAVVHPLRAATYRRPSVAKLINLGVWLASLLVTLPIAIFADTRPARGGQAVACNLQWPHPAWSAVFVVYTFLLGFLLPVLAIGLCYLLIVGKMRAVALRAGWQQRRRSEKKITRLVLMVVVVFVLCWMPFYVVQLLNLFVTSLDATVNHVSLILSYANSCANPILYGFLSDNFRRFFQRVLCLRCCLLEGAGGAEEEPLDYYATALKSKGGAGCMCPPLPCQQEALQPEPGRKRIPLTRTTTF

SMILES | Changes in Foot Swelling Rate (Mean ± SEM) ([1]; 0 h (before modeling)) | Foot Swelling Degrees (Mean ± SEM) ([1]; 0 h (before modeling)) | Changes in Foot Swelling Rate (Mean ± SEM) ([1]; 2 h after modeling) | Foot Swelling Degrees (Mean ± SEM) ([1]; 2 h after modeling) | Changes in Foot Swelling Rate (Mean ± SEM) ([1]; 4 h after modeling) | Foot Swelling Degrees (Mean ± SEM) ([1]; 4 h after modeling) | Changes in Foot Swelling Rate (Mean ± SEM) ([1]; 7 h after modeling) | Foot Swelling Degrees (Mean ± SEM) ([1]; 7 h after modeling) | No. of writhing's [3] | Percentage of Inhibition [3] | Significant compared to the model group [3] | other results
CC(=O)Oc1ccccc1C(=O)O [Aspirin] | 0% | 4.08 ± 0.10 mm | 33.44 ± 4.56% | 5.42 ± 0.11 mm | 24.42 ± 6.86% | 5.05 ± 0.21 mm | 19.72 ± 3.24% | 4.87 ± 0.07 mm | – | – | – | –
CC(C)(NC(=O)[C@@H]1[C@@H]2CNC[C@H]1C2)c1ncc2c(Br)cccn12 [Compound 3, (1R,5S,6s)-N-(2-(8-bromoimidazo[1,5-a]pyridin-3-yl)propan-2-yl)-3-azabicyclo[3.1.1]heptane-6-carboxamide] | – | – | – | – | – | – | – | – | – | – | – | EC50 [2]: > 1000 nM
COc1ccc(-c2cccn3c(C(C)(C)NC(=O)[C@H]4[C@@H]5CNC[C@H]4C5)ncc23)cc1 [Compound 12, (1R,5S,6r)-N-(2-(8-(4-methoxyphenyl)imidazo[1,5-a]pyridin-3-yl)propan-2-yl)-3-azabicyclo[3.1.1]heptane-6-carboxamide] | – | – | – | – | – | – | – | – | 10 | 54.16% | Yes | –
CC(C)(NC(=O)[C@@H]1[C@@H]2C[C@H]1CN(C(=N)N)C2)c1ncc2c(Cl)cccn12 [Compound 21, (1R,5S,6r)-3-carbamimidoyl-N-(2-(8-chloroimidazo[1,5-a]pyridin-3-yl)propan-2-yl)-3-azabicyclo[3.1.1]heptane-6-carboxamide] | – | – | – | – | – | – | – | – | 9 | 71% | Yes | –
CC(C)(NC(=O)[C@@H]1[C@@H]2C[C@H]1CN(C(=N)N)C2)c1nc(C2CC2)c2ccccn12 [Compound 22, (1R,5S,6r)-3-carbamimidoyl-N-(2-(1-cyclopropylimidazo[1,5-a]pyridin-3-yl)propan-2-yl)-3-azabicyclo[3.1.1]heptane-6-carboxamide] | – | – | – | – | – | – | – | – | 7 ± 2 | 82.45 ± 5.13% | Yes | AUC(0-t) [4]: 1.3 ng·h/mL; Cmax [4]: 5.56 ng/mL; MRT inf [4]: 11.4 min; Tmax [4]: 11.4 min
CC(C)C[C@H](CN)CC(=O)O [Pregabalin] | 0% | 4.06 ± 0.07 mm | 41.54 ± 1.45% | 5.74 ± 0.09 mm | 35.68 ± 2.85% | 5.49 ± 0.09 mm | 37.64 ± 2.63% | 5.58 ± 0.13 mm | – | – | – | –
